Assay results reported in PMC10814725, “In Vitro Anti-Inflammatory Study of Limonoids Isolated from Chisocheton Plants” (Current Issues in Molecular Biology, 2024).
Read-outs that look alike come from different tables or passages of the source.

Assays:
TNF-α = test: ELISA of TNF-α production in LPS-stimulated THP-1 cells; format: cell-based, human; details: Homo sapiens, THP-1, 18 h, LPS-stimulated (10 ng/mL) THP-1 cells, 1, 5, 10, 20 µM, 18 h; read-out: TNF-α IC50
MCP-1 = test: ELISA of MCP-1 production in LPS-stimulated THP-1 cells; format: cell-based, human; details: Homo sapiens; LPS-stimulated (10 ng/mL) THP-1 cells, 1, 5, 10, 20 µM, 18 h
Description: (§1) The logarithmic growth phase of THP-1 cells was achieved by seeding in 96-well plates at a density of 5 × 10^4 cells/well and differentiated for 24 h in the presence of PMA (0.5 μM solution in medium). After 24 h of incubation, the culture medium was removed from the 96-well plate and the cells were washed with PBS. […] The cells were pretreated with 17 limonoids at the corresponding concentration for 1 h, followed by the addition of LPS (10 ng/mL) and then incubation at 37 °C for 18 h. Finally, 50 μL of each culture supernatant solution was taken to determine the concentrations of IL-6, MCP-1, and IL-1β using the corresponding commercially available human ELISA kits following the manufacturer’s instructions. The analyte concentration in the supernatant was measured in pg/mL, and the inhibition level was expressed as a fold change compared to the LPS (−) control group. To determine the IC50 value, the dose-response data were normalized to the LPS-stimulated-only group, and the percentage of inhibition was calculated using the following formula: % Inhibition=(Absorbance of LPS+ control−Absorbance of compound treatment with LPS)/(Absorbance of LPS+ control−Absorbance of LPS− control)×100
(§2) Furthermore, the % inhibition data were interpolated into linear equations to determine the IC50 values.

IL-6 = test: ELISA of IL-6 production in LPS-stimulated THP-1 cells; format: cell-based, human; details: Homo sapiens, THP-1, 18 h, LPS-stimulated (10 ng/mL) THP-1 cells, 1, 5, 10, 20 µM, 18 h
Description: as §1, §2

[1] = Cell viability by CCK-8, THP-1 cells; format: cell-based; details: human, PMA-differentiated THP-1 cells
Description: (§3) The viability of HEK-Blue^TM hTLR4, […], and THP-1 cells was evaluated using the Dojindo Cell Counting Kit-8 (CCK-8) according to the manufacturer’s instructions. The viability of HEK-Blue^TM hTLR4 and THP-1 cells was assessed under identical conditions to the corresponding assay treatments. HEK-Blue^TM hTLR4 cells (2 × 10^4 cells/well) were seeded in 96-well plates and serum-starved for 24 h at 37 °C in a 5% CO2 atmosphere. After incubation, the culture medium was aspirated, and the cells were washed with saline. High-glucose D-MEM supplemented with 0.1% FBS and 1% penicillin–streptomycin was added and pretreated with or without the 17 limonoids at a concentration of 20 µM for 1 h, followed by LPS addition at a concentration of 10 ng/mL. After 18 h of incubation, a 10% (v/v) CCK-8 solution was added to each well and incubated at 37 °C for 1 h, and cell viability was calculated.
The THP-1 cells at 5 × 10^4 cells/well were differentiated for 24 h in the presence of PMA (0.5 μM solution in medium). After 24 h of incubation, the culture medium was removed from the 96-well plate and the cells were washed with PBS. Fresh RPMI-1640 medium supplemented with 0.1% FBS and 1% penicillin–streptomycin was added to each well and incubated at 37 °C for overnight. The cells were pretreated with 17 limonoids at the corresponding concentration for 1 h followed by the addition of LPS (10 ng/mL) and incubated at 37 °C for 18 h. Furthermore, CCK-8 solution was added to each well with a final concentration was 10% (v/v) and incubated at 37 °C. After 1 h, the absorbance of each well was measured at […] by using a microplate reader (BioTek Cytation 5 Cell Imaging Multimode Reader). Cell viability was calculated using the following formula: % Cell viability=(Absorbance of sample−Absorbance of Background)/(Absorbance of control−Absorbance of Background)×100 where the absorbance of the sample is the absorbance of cells treated by the compound with or without LPS, the absorbance of the control is the absorbance of LPS (−)-treated cells, and the background absorbance is the absorbance of a well containing only the medium. The results were expressed as 100% cell viability.

[2] = Cell viability by CCK-8, HEK-Blue hTLR4 cells; format: cell-based; details: human
Description: as §3

in vitro = format: cell-based; details: mouse
Description: as §3

[3] = tested on: TNF-α, IL-6, IL-1β, and MCP-1; test: ELISA of pro-inflammatory markers overall (TNF-α, IL-6, IL-1β, MCP-1) in LPS-stimulated THP-1 cells; format: cell-based; details: Homo sapiens, read-out: Overall IC50 values for the evaluated pro-inflammatory markers
Description: The logarithmic growth phase of THP-1 cells was achieved by seeding in 96-well plates at a density of 5 × 10^4 cells/well and differentiated for 24 h in the presence of PMA (0.5 μM solution in medium). After 24 h of incubation, the culture medium was removed from the 96-well plate and the cells were washed with PBS. Fresh RPMI-1640 medium supplemented with 0.1% FBS and 1% Penicillin–Streptomycin was added to each well and incubated at 37 °C overnight. The cells were pretreated with 17 limonoids at the corresponding concentration for 1 h, followed by the addition of LPS (10 ng/mL) and then incubation at 37 °C for 18 h. Finally, 50 μL of each culture supernatant solution was taken to determine the concentrations of IL-6, MCP-1, and IL-1β using the corresponding commercially available human ELISA kits following the manufacturer’s instructions. The analyte concentration in the supernatant was measured in pg/mL, and the inhibition level was expressed as a fold change compared to the LPS (−) control group. To determine the IC50 value, the dose-response data were normalized to the LPS-stimulated-only group, and the percentage of inhibition was calculated using the following formula: % Inhibition=(Absorbance of LPS+ control−Absorbance of compound treatment with LPS)/(Absorbance of LPS+ control−Absorbance of LPS− control)×100
as §2

[4] = LPS 10 ng/mL, read-out: Viability Cell (%) THP-1 LPS-Induced (10 ng/mL)
[5] = without LPS, read-out: Viability Cell (%) THP-1 Without LPS
[6] = Viability Cell (%) HEK-Blue hTLR4 LPS-Induced (10 ng/mL)
[7] = Viability Cell (%) HEK-Blue hTLR4 Without LPS
[8] = RAW264.7 macrophages, 5 µM, read-out: Viability cell (%) RAW 264.7 5 µM
[9] = RAW264.7 macrophages, 10 µM, read-out: Viability cell (%) RAW 264.7 10 µM
[10] = RAW264.7 macrophages, 20 µM, read-out: Viability cell (%) RAW 264.7 20 µM

| SMILES | viability at 18 h, 10 µM [1, 4] [%] | viability at 18 h, 10 µM [1, 5] [%] | viability at 18 h, 20 µM [2, 6] [%] | viability at 18 h, 20 µM [2, 7] [%] | viability at 5 µM (in vitro) [%] | viability at 10 µM (in vitro) [%] | viability at 20 µM (in vitro) [%] | further results |
| --- | --- | --- | --- | --- | --- | --- | --- | --- |
| C[C@@H]1C[C@H]2[C@@H]3CCC4=CC(=O)C=C[C@]4(C)[C@@]3(F)[C@@H](O)C[C@]2(C)[C@@]1(O)C(=O)CO [Dex, dexamethasone, reference compound] | – | – | – | – | – | – | – | IC50 (TNF-α): 2170 nM; IC50 (MCP-1): 500 nM; IC50 (IL-6): 720 nM; CC50 at 18 h ([1]; concentration causing 50% cytotoxicity against THP-1 cells): 28200 nM |
| CC(=O)O[C@H]1[C@@H](OC(C)=O)[C@@]2(C)C3C(=O)C[C@@H](c4ccoc4)[C@]3(C)CC[C@@H]2[C@@]2(C)C=CC(=O)C(C)(C)[C@H]12 (stereo partly drawn) [Compound 7, toonaciliatone F] | > 99.9 | > 99.9 | 87.3 ± 4 | 92.9 ± 2.11 | > 99.9 | > 99.9 | 95.9 ± 2.19 | – |
| CC(=O)O[C@H]1[C@@H](OC(C)=O)[C@]2(C)[C@H](CC[C@@]3(C)[C@H](c4ccoc4)C(=O)[C@H]4O[C@@]423)[C@@]2(C)C=CC(=O)C(C)(C)[C@H]12 [Compound 10, 6α-acetylepoxyazadirone] | > 99.9 | > 99.9 | > 99.9 | > 99.9 | 93.2 ± 4.2 | 82.1 ± 1.31 | 86.1 ± 4.07 | – |
| CC(=O)O[C@@H]1C[C@H]2C(C)(C)C(=O)C=C[C@]2(C)[C@H]2CC[C@]3(C)C(C(=O)C[C@H]3c3ccoc3)[C@@]21C (stereo partly drawn) [Compound 2, 7α-acetylneotrichilenone] | > 99.9 | > 99.9 | 75.5 ± 13.8 | 61.2 ± 1.22 | 96.2 ± 3.67 | > 99.9 | > 99.9 | – |
| CC(=O)O[C@H]1[C@@H](OC(C)=O)[C@@]2(C)C3=CC[C@@H](C4=CCOC4=O)[C@]3(C)CC[C@@H]2[C@@]2(C)C=CC(=O)C(C)(C)[C@H]12 [Compound 6, lasiocarpine A] | > 99.9 | 90.7 ± 3.82 | – | – | – | – | – | viability at 18 h, 20 µM ([2]; 20 µM, 18 h, LPS 10 ng/mL, read-out: Viability Cell (%) HEK-Blue hTLR4 LPS-Induced (10 ng/mL)): 58.3 ± 1.89%; viability at 18 h, 20 µM ([2]; 20 µM, 18 h, without LPS, read-out: Viability Cell (%) HEK-Blue hTLR4 Without LPS): 77.1 ± 2.13%; viability at 5 µM (in vitro; 5 µM, read-out: Viability cell (%) RAW 264.7 5 µM): 103 ± 6.05%; viability at 10 µM (in vitro; 10 µM, read-out: Viability cell (%) RAW 264.7 10 µM): > 99.9%; viability at 20 µM (in vitro; 20 µM, read-out: Viability cell (%) RAW 264.7 20 µM): 96.7 ± 2.14% |
| COc1cc([C@@H]2c3cc4c(cc3[C@@H](O[C@@H]3O[C@@H]5CO[C@@H](C)O[C@H]5[C@H](O)[C@H]3O)[C@H]3COC(=O)[C@H]23)OCO4)cc(OC)c1O [Etoposide, reference compound] | – | – | – | – | – | – | – | viability at 5 µM (in vitro; [8]): 67.5 ± 2.36%; viability at 10 µM (in vitro; [9]): 54.8 ± 2.58%; viability at 20 µM (in vitro; [10]): 38.9 ± 3.19% |
| CC1(C)C(=O)C=C[C@]2(C)[C@H]3CC[C@]4(C)C(C(=O)C[C@H]4c4ccoc4)[C@]3(C)[C@H](O)C[C@@H]12 (stereo partly drawn) [Compound 1, 7α-hydroxyneotrichilenone] | > 99.9 | > 99.9 | > 99.9 | > 99.9 | > 99.9 | > 99.9 | > 99.9 | – |
| C[C@]12C3=CC[C@@H](C4=CC(O)OC4=O)[C@]3(C)CC[C@@H]1[C@@]1(C)C(=O)C=C[C@@]3(C)CO[C@@H]([C@H]2O)[C@H]13 (stereo partly drawn) [Compound 14, pentandricine] | 91.1 ± 9.03 | > 99.9 | > 99.9 | > 99.9 | > 99.9 | 88.2 ± 3.86 | 91.3 ± 4.19 | IC50 [3]: < 20000 nM |
| CC(=O)O[C@H]1[C@@H](OC(C)=O)[C@]2(C)[C@H](CCC3=C(c4ccoc4)C[C@@H](O)[C@]32C)[C@@]2(C)C=CC(=O)C(C)(C)[C@H]12 [Compound 8, toonaciliatone C] | 94 ± 9.84 | > 99.9 | – | – | – | – | – | viability at 18 h, 20 µM ([2]; HEK-Blue hTLR4 cells, 20 µM, 18 h, LPS 10 ng/mL, read-out: Viability Cell (%) HEK-Blue hTLR4 LPS-Induced (10 ng/mL)): 88 ± 6.37%; viability at 18 h, 20 µM ([2]; HEK-Blue hTLR4 cells, 20 µM, 18 h, without LPS, read-out: Viability Cell (%) HEK-Blue hTLR4 Without LPS): > 99.9%; viability at 5 µM (in vitro; [8]): 89.5 ± 9.38%; viability at 10 µM (in vitro; [9]): 94.75 ± 0.32%; viability at 20 µM (in vitro; [10]): 87.5 ± 3.33% |
